Patent US9981925B2, “Substituted benzo[d][1,2,3]triazines as p70S6K inhibitors” (Merck Patent GmbH, priority 2012, dated 2018)

Columns and labels:
p70S6K (T412E mutant) = p70S6K (T412E mutant) (Homo sapiens (Human), UniProt P23443, T412E); assay: p70S6K enzyme assay; assay type: biochemical
Experimental: p70S6K inhibitor compounds were diluted and plated in 96 well plates. A reaction mixture including the following components were then added to the compound plate to initiate the enzyme reaction: p70S6K (3 nM, T412E mutant, Millipore) was mixed with 24 μM ATP in an assay buffer containing 100 mM Hepes (pH 7.5), 5 mM MgCl2, 1 mM DTT, 0.015% Brij and 1 μM of the substrate peptide FITC-AHA-[…]-OH (derived from the S6 ribosomal protein sequence, FITC=fluorescein isothiocyanate, AHA=6-aminohexanoic acid). The reaction was incubated for 90 min at 25° C., before the addition of 10 mM EDTA to stop the reaction. The proportion of substrate and product (phosphorylated) peptide was analyzed on a Caliper Life Sciences Lab Chip 3000, using a pressure of −1.4 psi, and upstream and downstream voltages of −3000 and −700, respectively. Product peaks were resolved before substrate peaks on the resulting chromatograms. To assess the inhibitory potential of the compounds, IC50 values were determined, as shown above.

His-AKT (Full Length) = His-AKT (Full Length) (Homo sapiens (Human), UniProt P31749); assay: AKT/PKB kinase assay; assay type: biochemical
His-AKT (Full Length), sequence (P31749 whole entry): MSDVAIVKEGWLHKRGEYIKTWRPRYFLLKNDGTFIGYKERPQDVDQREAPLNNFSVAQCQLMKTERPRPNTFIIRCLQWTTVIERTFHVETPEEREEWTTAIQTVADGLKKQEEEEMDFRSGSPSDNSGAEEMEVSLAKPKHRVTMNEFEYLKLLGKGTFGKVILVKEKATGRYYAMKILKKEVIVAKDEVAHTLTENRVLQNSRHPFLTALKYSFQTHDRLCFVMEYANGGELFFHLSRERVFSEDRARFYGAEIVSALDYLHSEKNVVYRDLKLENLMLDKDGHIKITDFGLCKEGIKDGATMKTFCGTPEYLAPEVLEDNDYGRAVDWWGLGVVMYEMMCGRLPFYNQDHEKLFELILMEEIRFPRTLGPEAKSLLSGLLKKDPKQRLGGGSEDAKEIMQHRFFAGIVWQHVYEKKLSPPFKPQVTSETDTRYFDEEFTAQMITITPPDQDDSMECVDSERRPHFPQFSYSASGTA
Experimental: In order to measure AKT inhibition in the Caliper Life Sciences LC3000, a TTP Mosquito liquid handling instrument was used to place 125 nl of the appropriate concentration of inhibitor in 100% DMSO (for a dose response curve calculation) into each well of a 384-well plate. To this reaction, the following components were added to a final volume of 12.5 μl: • 0.1 ng/μl His-AKT (Full Length) (Invitrogen, Part # P2999, Lot #641228C); • 160 μM ATP (Fluka, 02055); • 1 mM DTT (Sigma, D0632); • 1 mM MgCl2 (Sigma, M1028); • 1 μM substrate peptide (sequence FITC-AHA-[…]-NH2), synthesized by • Tufts Peptide Synthesis service; • 100 mM HEPES pH 7.5 (Calbiochem, 391338); and • 0.015% Brij-35 (Sigma, B4184).
The reaction was incubated for 90 min at 25° C., and then stopped by the addition of 70 μl of Stop buffer (100 mM HEPES pH 7.5, 0.015% Brij-35, 10 mM EDTA (Sigma, E7889)). The plate was read on a Caliper LC 3000 in an Off-Chip mobility shift assay format, using the following parameters for a 12-sipper chip: screening pressure −2.3 psi, upstream voltage −500, and downstream voltage −3000. These conditions cause unphosphorylated substrate and phosphorylated product peptide to resolve as separate peaks allowing direct measurement of percentage of conversion of substrate to product. The percent conversion was plotted against concentration of inhibitor to produce a sigmoidal dose response curve, from which an IC50 was calculated.

[1] = 24 μM ATP, 90 min at 25° C., Caliper mobility shift
[2] = 160 μM ATP, 90 min at 25° C., Caliper mobility shift
[3] = value printed in the synthesis paragraph

p70S6K (T412E mutant), sequence (P23443 whole entry T412E): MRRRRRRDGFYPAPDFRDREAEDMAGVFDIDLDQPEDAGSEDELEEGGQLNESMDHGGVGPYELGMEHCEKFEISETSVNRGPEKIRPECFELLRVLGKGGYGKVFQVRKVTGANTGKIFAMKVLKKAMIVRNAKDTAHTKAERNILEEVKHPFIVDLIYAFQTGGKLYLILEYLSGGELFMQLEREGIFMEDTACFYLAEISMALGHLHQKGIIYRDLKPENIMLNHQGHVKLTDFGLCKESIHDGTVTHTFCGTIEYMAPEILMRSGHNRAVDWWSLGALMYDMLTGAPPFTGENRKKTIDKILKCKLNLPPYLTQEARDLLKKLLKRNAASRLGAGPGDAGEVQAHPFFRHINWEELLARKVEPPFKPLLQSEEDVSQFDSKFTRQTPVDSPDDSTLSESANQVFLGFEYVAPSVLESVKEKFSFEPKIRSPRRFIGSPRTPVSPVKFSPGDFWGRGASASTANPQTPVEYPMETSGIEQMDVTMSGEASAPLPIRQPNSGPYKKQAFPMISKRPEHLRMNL

Structure (SMILES) | IC50 (p70S6K (T412E mutant); [1]) [nM] | IC50 (His-AKT (Full Length); [2]) [nM] | IC50 (p70S6K (T412E mutant); [3]) [nM] | IC50 (His-AKT (Full Length); [3]) [nM]
CNC[C@@H](Nc1ncnc2c(C(N)=O)ccnc12)c1ccc(F)c(Br)c1 [Compound 28, 4-[(S)-1-(3-Bromo-4-fluoro-phenyl)-2-methylamino-ethylamino]-pyrido[3,2-d]pyrimidine-8-carboxylic Acid Amide] | < 25 | < 25 |  | 
CCNC[C@@H](Nc1ncnc2c(C(N)=O)ccnc12)c1ccc(C(F)(F)F)c(F)c1 [Compound 29, 4-[(S)-2-Ethylamino-1-(3-fluoro-4-trifluoromethyl-phenyl)-ethylamino]-pyrido[3,2-d]pyrimidine-8-carboxylic Acid Amide] | < 25 | 25 to 100 |  | 
CCNC[C@@H](Nc1ncnc2c(C(N)=O)ccnc12)c1cc(F)c(OC)cc1F [Compound 31, 4-[(S)-1-(2,5-Difluoro-4-methoxy-phenyl)-2-ethylamino-ethylamino]-pyrido[3,2-d]pyrimidine-8-carboxylic Acid Amide] | 25 to 100 | > 1000 |  | 
CNC[C@@H](Nc1ncnc2c(C(N)=O)ccnc12)c1cc(F)c(OC)cc1F [Compound 32, 4-[(S)-1-(2,5-Difluoro-4-methoxy-phenyl)-2-methylamino-ethylamino]-pyrido[3,2-d]pyrimidine-8-carboxylic Acid Amide] | < 25 | 101 to 500 |  | 
CCNC[C@@H](Nc1ncnc2c(C(N)=O)ccnc12)c1ccc(Cl)c(C(F)(F)F)c1 [Compound 33, 4-[(S)-1-(4-Chloro-3-trifluoromethyl-phenyl)-2-ethylamino-ethylamino]-pyrido[3,2-d]pyrimidine-8-carboxylic Acid Amide] | < 25 | 25 to 100 |  | 
CCNC[C@@H](Nc1ncnc2c(C(N)=O)ccnc12)c1cc(F)cc(C(F)(F)F)c1 [Compound 34, 4-[(S)-2-Ethylamino-1-(3-fluoro-5-trifluoromethyl-phenyl)-ethylamino]-pyrido[3,2-d]pyrimidine-8-carboxylic Acid Amide] | 25 to 100 | 101 to 500 |  | 
CNC[C@@H](Nc1ncnc2c(C(N)=O)ccnc12)c1cc(F)cc(C(F)(F)F)c1 [Compound 35, 4-[(S)-1-(3-Fluoro-5-trifluoromethyl-phenyl)-2-methylamino-ethylamino]-pyrido[3,2-d]pyrimidine-8-carboxylic Acid Amide] | < 25 | 25 to 100 |  | 
NC(=O)c1ccnc2c(N[C@H](CN3CCC3)c3ccc(Cl)cc3)ncnc12 [Compound 36, 4-[(S)-2-Azetidin-1-yl-1-(4-chloro-phenyl)-ethylamino]-pyrido[3,2-d]pyrimidine-8-carboxylic Acid Amide] | < 25 | 101 to 500 |  | 
CC(C)c1ccc([C@@H](CN2CCC2)Nc2ncnc3c(C(N)=O)ccnc23)cc1 [Compound 37, 4-[(S)-2-Azetidin-1-yl-1-(4-isopropyl-phenyl)-ethylamino]-pyrido[3,2-d]pyrimidine-8-carboxylic Acid Amide] | < 25 | 501 to 1000 |  | 
CNC[C@@H](Nc1ncnc2c(C(N)=O)ccnc12)c1ccc(C(F)(F)F)cc1 [Compound 38, 4-[(S)-2-Methylamino-1-(4-trifluoromethyl-phenyl)-ethylamino]-pyrido[3,2-d]pyrimidine-8-carboxylic Acid Amide] | < 25 | 25 to 100 |  | 
CNC[C@@H](Nc1ncnc2c(C(N)=O)ccnc12)c1ccc(C(C)C)cc1 [Compound 39, 4-[(S)-1-(4-Isopropyl-phenyl)-2-methylamino-ethylamino]-pyrido[3,2-d]pyrimidine-8-carboxylic Acid Amide] | < 25 | 101 to 500 |  | 
CNC[C@@H](Nc1ncnc2c(C(N)=O)nccc12)c1ccc(C(C)C)cc1 [Compound 40, 4-[(S)-1-(4-Isopropyl-phenyl)-2-methylamino-ethylamino]-pyrido[3,4-d]pyrimidine-8-carboxylic Acid Amide] | 25 to 100 | > 1000 |  | 
NC(=O)c1ccnc2c(N[C@H](CN3CCC3)c3ccc(Cl)c(C(F)(F)F)c3)ncnc12 [Compound 41, 4-[(S)-2-Azetidin-1-yl-1-(4-chloro-3-trifluoromethyl-phenyl)-ethylamino]-pyrido[3,2-d]pyrimidine-8-carboxamide] | < 25 | < 25 | 1.6 | 11
CNC[C@@H](Nc1ncnc2c(C(N)=O)nccc12)c1ccc(Cl)c(C(F)(F)F)c1 [Compound 42, 4-[(S)-1-(4-Chloro-3-trifluoromethyl-phenyl)-2-methylamino-ethylamino]-pyrido[3,4-d]pyrimidine-8-carboxylic Acid Amide] | < 25 | < 25 |  | 
CNC[C@@H](Nc1ncnc2c(C(N)=O)ccnc12)c1ccc(C(F)(F)F)c(C(F)(F)F)c1 [Compound 43, 4-[(S)-1-(3,4-Bis-trifluoromethyl-phenyl)-2-methylamino-ethylamino]-pyrido[3,2-d]pyrimidine-8-carboxylamide] | < 25 | < 25 |  | 
CNC[C@@H](Nc1ncnc2c(C(N)=O)ccnc12)c1ccc(Cl)c(C)c1 [Compound 44, 4-[(S)-1-(4-Chloro-3-methyl-phenyl)-2-methylamino-ethylamino]-pyrido[3,2-d]pyrimidine-8-carboxylic Acid Amide] | < 25 | < 25 |  | 
CNC[C@@H](Nc1ncnc2c(C(N)=O)ccnc12)c1ccc(Cl)cc1 [Compound 45, 4-[(S)-1-(4-Chloro-phenyl)-2-methylamino-ethylamino]-pyrido[3,2-d]pyrimidine-8-carboxylic Acid Amide] | < 25 | 25 to 100 |  | 
Cc1cc([C@@H](CN2CCC2)Nc2ncnc3c(C(N)=O)ccnc23)ccc1Cl [Compound 46, 4-[(S)-2-Azetidin-1-yl-1-(4-chloro-3-methyl-phenyl)-ethylamino]-pyrido[3,2-d]pyrimidine-8-carboxylic Acid Amide] | < 25 | < 25 |  | 
CNC[C@@H](Nc1ncnc2c(C(N)=O)ccnc12)c1ccc(F)c(C(F)(F)F)c1 [Compound 49, 4-[(S)-1-(4-Fluoro-3-trifluoromethyl-phenyl)-2-methylamino-ethylamino]-pyrido[3,2-d]pyrimidine-8-carboxylic Acid Amide] | < 25 | < 25 |  | 
CN(C)C[C@@H](Nc1ncnc2c(C(N)=O)ccnc12)c1ccc(F)c(C(F)(F)F)c1 [Compound 50, 4-[(S)-2-Dimethylamino-1-(4-fluoro-3-trifluoromethyl-phenyl)-ethylamino]-pyrido[3,2-d]pyrimidine-8-carboxylic Acid Amide] | < 25 | 25 to 100 |  | 
CNC[C@@H](Nc1ncnc2c(C(N)=O)ccnc12)c1ccc(F)c(C(F)F)c1 [Compound 51, 4-[(S)-1-(3-Difluoromethyl-4-fluoro-phenyl)-2-methylamino-ethylamino]-pyrido[3,2-d]pyrimidine-8-carboxylic Acid Amide] | < 25 | < 25 |  | 
CC(C)NC[C@@H](Nc1ncnc2c(C(N)=O)ccnc12)c1ccc(F)c(C(F)(F)F)c1 [Compound 52, 4-[(S)-1-(4-Fluoro-3-trifluoromethyl-phenyl)-2-isopropylamino-ethylamino]-pyrido[3,2-d]pyrimidine-8-carboxylic Acid Amide] | 25 to 100 | 101 to 500 |  | 
CC(C)NC[C@@H](Nc1ncnc2c(C(N)=O)ccnc12)c1ccc(Cl)c(F)c1 [Compound 54, 4-[(S)-1-(4-Chloro-3-fluoro-phenyl)-2-isopropylamino-ethylamino]-pyrido[3,2-d]pyrimidine-8-carboxylic Acid Amide] | 25 to 100 | 101 to 500 |  | 
CC(C)NC[C@@H](Nc1ncnc2c(C(N)=O)ccnc12)c1ccc(Cl)c(C(F)(F)F)c1 [Compound 55, 4-[(S)-1-(4-Chloro-3-trifluoromethyl-phenyl)-2-isopropylamino-ethylamino]-pyrido[3,2-d]pyrimidine-8-carboxylic Acid Amide] | 101 to 500 | 101 to 500 |  | 
CCNC[C@@H](Nc1ncnc2c(C(N)=O)ccnc12)c1ccc(F)c(C(F)(F)F)c1 [Compound 56, 4-[(S)-2-Ethylamino-1-(4-fluoro-3-trifluoromethyl-phenyl)-ethylamino]-pyrido[3,2-d]pyrimidine-8-carboxylic Acid Amide] | < 25 | 25 to 100 |  | 
